Measurements reported in US6391595B1, “Transferase and amylase, process for producing the enzymes, use thereof, and gene coding for the same” (Kirin Beer Kabushiki Kaisha, priority 1994, dated 2002).

Key:
[1] = molecular target: T1, amylase derived from the Sulfolobus solfataricus strain KM1 (Saccharolobus solfataricus, UniProt Q55088); test: Substrate specificity of the purified amylase (hydrolyzing properties, TSK-gel Amide-80 HPLC); format: biochemical; settings: for Liberated oligosaccharide / Production rate of mono- and disaccharides: 25.0 Units/ml enzyme, 10 mM substrate (amylopectin and soluble starch 2.8%); for Production rate of mono- and disaccharides: 1 Unit = 1 μmol per hour
T1 construct: endogenous in cells; host or cells: Sulfolobus solfataricus strain KM1 cells
T1 sequence (Q55088 1-559): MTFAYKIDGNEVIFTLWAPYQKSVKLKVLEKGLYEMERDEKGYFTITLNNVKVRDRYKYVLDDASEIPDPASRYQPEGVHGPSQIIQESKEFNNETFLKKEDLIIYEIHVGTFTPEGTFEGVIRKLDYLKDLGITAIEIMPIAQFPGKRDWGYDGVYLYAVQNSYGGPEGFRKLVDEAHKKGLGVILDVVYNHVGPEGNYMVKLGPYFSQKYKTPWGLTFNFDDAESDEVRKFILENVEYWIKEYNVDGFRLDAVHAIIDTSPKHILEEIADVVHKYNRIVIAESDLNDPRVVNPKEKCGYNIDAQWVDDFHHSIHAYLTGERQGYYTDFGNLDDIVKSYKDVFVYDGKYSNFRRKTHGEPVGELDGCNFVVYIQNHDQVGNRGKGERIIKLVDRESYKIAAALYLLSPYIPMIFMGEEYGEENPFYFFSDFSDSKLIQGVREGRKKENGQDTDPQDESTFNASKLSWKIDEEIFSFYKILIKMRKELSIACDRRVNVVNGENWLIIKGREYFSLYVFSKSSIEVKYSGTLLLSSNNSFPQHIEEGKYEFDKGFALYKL
Protocol: The hydrolyzing properties were analyzed by allowing 25.0 Units/ml (in terms of the enzymatic activity when maltotriosyltrehalose is used as the substrate) of the present purified enzyme to act on the various 10 mM substrates (except amylopectin and soluble starch were used as 2.8% solutions) listed in Table 16 below, and the hydrolyzed products were also analyzed.
Incidentally, each enzymatic activity in Table 16 is expressed with such a unit as 1 Unit equals the activity of liberating 1 μmol of each of the monosaccharide and disaccharide per hour.

[2] = system: recombinant novel transferase; test: Conversion of maltooligosaccharides into α-1,α-1-transferred isomers by transferase from a transformant; format: biochemical, Sulfolobus solfataricus; settings: 12.7 Units/ml concentrated enzyme solution (on maltotriose); 1 Unit = 1 μmol α-1,α-1-transferred isomer per hour
Protocol: Maltotriose (G3)-Maltoheptaose (G7) (all manufactured by Hayashibara Baiokemikaru Co.) were used as substrates. The crude enzyme solution obtained in Example I-14 was lyophilized, and then suspended in a 50 mM sodium acetate solution (pH 5.5) to make a concentrated enzyme solution. Each of the substrates was subjected to reaction with 12.7 Units/ml (in terms of the enzymatic activity when maltotriose is used as the substrate) of the concentrated enzyme solution to produce a corresponding α-1,α-1-transferred isomer. Each reaction product was analyzed by the method described in Example I-1 to examine the yield and the enzymatic activity. Incidentally, as to the enzymatic activity shown in Table 38, 1 Unit is defined as an enzymatic activity of transferring maltooligosaccharide to produce 1 μmol per hour of a corresponding α-1,α-1-transferred isomer.

[3] = system: transferase derived from the Sulfolobus solfataricus strain KM1; test: Conversion of maltooligosaccharides into α-1,α-1-transferred isomers by purified transferase; format: biochemical; settings: substrate 100 mM; for Enzyme activity: enzyme 13.5 Units/ml (on maltotriose), 1 Unit = 1 umol α-1,α-1-transferred isomer per hour
Protocol: As the substrates, maltotriose (G3)-maltoheptaose (G7) were used in a concentration of 100 mM. The purified enzyme obtained in Example I-2 was then allowed to act on each of the above substrates in an amount of 13.5 Units/ml (in terms of the enzyme activity when the substrate is maltotriose) to produce a corresponding α-1,α-1-transferred isomer. Each product was analyzed by the method in Example I-1, and investigated its yield and enzyme activity. Incidentally, in Table 10, each enzymatic activity value was expressed with such a unit as 1 Unit equals the activity of converting the maltooligosaccharide into 1 umol of corresponding α-1,α-1-transferred isomer per hour.

[4] = molecular target: T2, recombinant novel amylase (Saccharolobus solfataricus, UniProt Q55088); test: Substrate specificity of the recombinant novel amylase (crude enzyme solution); settings: for Liberated oligosaccharide / Production rate of mono- and disaccharides: 35.2 Units/ml crude enzyme solution, 10 mM substrate (amylopectin and soluble starch 3.0%); for Production rate of mono- and disaccharides: 1 Unit = 1 μmol per hour
T2 sequence (Q55088 1-559): T1 sequence (Q55088 1-559)

[5] = molecular target: T3, swine pancreatic α-amylase (Sus scrofa, UniProt P00690); test: Hydrolysis of oligosaccharides by pancreatic α-amylase (comparative); format: biochemical; settings: 1 Unit/ml α-amylase, 10 mM substrate, pH 6.9, 20° C.; for Production rate of di- and trisaccharides: 1 Unit = 1 umol per hour
T3 construct: purchased Sigma Co. A-6255
T3 sequence (P00690 16-511): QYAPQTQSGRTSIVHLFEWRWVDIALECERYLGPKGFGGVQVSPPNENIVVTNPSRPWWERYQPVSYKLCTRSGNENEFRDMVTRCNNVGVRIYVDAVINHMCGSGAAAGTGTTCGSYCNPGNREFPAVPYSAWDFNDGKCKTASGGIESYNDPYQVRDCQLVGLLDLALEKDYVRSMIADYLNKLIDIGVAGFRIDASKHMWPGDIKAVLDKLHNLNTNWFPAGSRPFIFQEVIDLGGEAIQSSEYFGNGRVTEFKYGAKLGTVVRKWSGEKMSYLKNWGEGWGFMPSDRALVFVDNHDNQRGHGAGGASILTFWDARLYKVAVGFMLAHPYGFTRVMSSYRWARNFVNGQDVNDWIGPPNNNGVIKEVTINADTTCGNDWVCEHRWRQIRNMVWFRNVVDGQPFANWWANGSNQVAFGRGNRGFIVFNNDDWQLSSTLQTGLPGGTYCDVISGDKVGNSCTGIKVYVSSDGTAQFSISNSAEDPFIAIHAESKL
Protocol: Swine pancreatic α-amylase is known to hydrolyze maltooligosaccharide from the reducing end by two or three sugar units [“Denpun.Kanren Toushitsu Kouso Jikken-hou” (“Experimental methods in enzymes for starch and relating saccharides”), p 135, written by Michinori Nakamura and Keiji Kainuma, published by Gakkai-Shuppan-Sentah]. Upon this, a swine pancreatic α-amylase (manufactured by Sigma Co., A-6255) was analyzed the hydrolyzing properties and the hydrolysates as a comparative example for the novel amylase of the present invention. […] The activity of producing disaccharide and trisaccharide was employed as the index of the enzymatic activity, and the analysis was performed by the TSK-gel Amide-80 HPLC analyzing method described in Example II-1.
Incidentally, the enzymatic activity values in Table 17 were expressed with such a unit as 1 Unit equals the activity of liberating 1 umol of each oligosaccharide per hour.

[6] = system: transferase derived from the Sulfolobus solfataricus strain KM1; test: Substrate specificity of the transferase (production of α-1,α-1-transferred isomer); format: biochemical
Protocol: It was investigated whether or not the present enzyme acts on each of the substrates listed in Table 9 below to produce its α-1,α-1-transferred isomer. Here, the activity measurement was performed in the same manner as in Example I-1.

[7] = system: transferase derived from the Sulfolobus solfataricus strain KM1; test: Influence of activators and inhibitors on glucosyltrehalose-producing activity; format: biochemical; settings: Concentration 0.5 mM
[8] = molecular target: T1, amylase derived from the Sulfolobus solfataricus strain KM1; test: biochemical; format: biochemical; settings: Concentration 0.5 mM

Compound | Liberated oligosaccharide [1] | Production rate of mono- and disaccharides [1] | Enzyme activity [2] | Enzyme activity [3] | Liberated oligosaccharide [4] | Production rate of mono- and disaccharides [4] | Liberated oligosaccharide [5] | Production rate of di- and trisaccharides [5] | Action of the enzyme on the substrate [1] | Action of the enzyme on the substrate [4] | Action of the enzyme on the substrate [6] | Residual activity [7] | Residual activity [8] | Activity relative to G3 [3]
OC[C@H]1O[C@H](O[C@H]2[C@H](O)[C@@H](O)[C@@H](O[C@H]3[C@H](O)[C@@H](O)C(O)O[C@@H]3CO)O[C@@H]2CO)[C@H](O)[C@@H](O)[C@@H]1O (mixture of isomers) [Maltotriose (G3), Maltotriose] | Glucose + G2 | 0.30 units/ml | 12.7 unit/ml | 13.5 units/ml | Glucose + G2 | 0.27 units/ml | not decomposed | 0 units/ml |  |  |  |  |  | 
OC[C@H]1O[C@H](OC[C@H]2O[C@H](OC[C@H]3O[C@H](OC[C@H]4O[C@H](OC[C@H]5OC(O)[C@H](O)[C@@H](O)[C@@H]5O)[C@H](O)[C@@H](O)[C@@H]4O)[C@H](O)[C@@H](O)[C@@H]3O)[C@H](O)[C@@H](O)[C@@H]2O)[C@H](O)[C@@H](O)[C@@H]1O (stereo partly shown) [Isomaltopentaose] | not decomposed | 0 units/ml |  |  | not decomposed | 0 units/ml |  |  | did not act | did not act | did not act |  |  | 
OC[C@H]1O[C@H](OC[C@H]2O[C@H](OC[C@H]3O[C@H](OC[C@H]4OC(O)[C@H](O)[C@@H](O)[C@@H]4O)[C@H](O)[C@@H](O)[C@@H]3O)[C@H](O)[C@@H](O)[C@@H]2O)[C@H](O)[C@@H](O)[C@@H]1O (stereo partly shown) [Isomaltotetraose] | not decomposed | 0 units/ml |  |  | not decomposed | 0 units/ml |  |  | did not act | did not act | did not act |  |  | 
OC[C@H]1O[C@H](OC[C@H]2O[C@H](OC[C@H]3OC(O)[C@H](O)[C@@H](O)[C@@H]3O)[C@H](O)[C@@H](O)[C@@H]2O)[C@H](O)[C@@H](O)[C@@H]1O (stereo partly shown) [Isomaltotriose] | not decomposed | 0 units/ml |  |  | not decomposed | 0 units/ml |  |  | did not act | did not act | did not act |  |  | 
OC[C@H]1O[C@H](O[C@H]2[C@H](O)[C@@H](O)[C@@H](O[C@H]3[C@H](O)[C@@H](O)[C@@H](O[C@H]4[C@H](O)[C@@H](O)C(O)O[C@@H]4CO)O[C@@H]3CO)O[C@@H]2CO)[C@H](O)[C@@H](O)[C@@H]1O (stereo partly shown) [Maltotetraose (G4), Maltotetraose] | Glucose + G2 + G3 | 0.31 units/ml | 72.5 unit/ml | 76.3 units/ml | Glucose + G2 + G3 | 0.26 units/ml | Glucose + G2 + G3 | 0.49 units/ml |  |  |  | 97.4% | 108.5% | 
OC[C@H]1O[C@H](OC[C@H]2O[C@H](O[C@H]3[C@H](O)[C@@H](O)C(O)O[C@@H]3CO)[C@H](O)[C@@H](O)[C@@H]2O)[C@H](O)[C@@H](O)[C@@H]1O (stereo partly shown) [Panose] | not decomposed | 0 units/ml |  |  | not decomposed | 0 units/ml |  |  | did not act | did not act | did not act |  |  | 
Maltoheptaose [Maltoheptaose (G7)] | Glucose + G2 + G5 + G6 | 1.80 units/ml | 60.2 unit/ml | 70.5 units/ml |  |  |  | 4.45 units/ml |  |  |  | 93.5% | 129.2% | 
Maltohexaose [Maltohexaose (G6)] | Glucose + G2 + G4 + G5 | 1.74 units/ml | 87.3 unit/ml | 100.9 units/ml |  |  |  | 4.44 units/ml |  |  |  | 91.0% | 123.8% | 
Maltopentaose [Maltopentaose (G5)] | Glucose + G2 + G3 + G4 | 1.79 units/ml | 103.5 unit/ml | 111.3 units/ml | Glucose + G2 + G3 + G4 | 2.12 units/ml |  | 6.12 units/ml |  |  |  | 101.9% | 105.8% | approximately 8 times
